Measurements taken from PMC7984888, “Inhibitory Activity of Pyrroloisoxazolidine Derivatives against Chlamydia trachomatis” (BioMed Research International, 2021).
Where two headings read alike, the source gives them in different places.

Assays:
C. trachomatis L2 = assay: Inclusion body immunofluorescence staining; assay type: cell-based, Chlamydia trachomatis; conditions: for Inclusions at the highest concentration: 32 μM, C. trachomatis L2, HeLa cells, 36 hpi; for Formation (number) and growth (size) of C. trachomatis L2 inclusions: HeLa cells, MOI 0.2, 36 hpi, compared with 0.5% DMSO
Description: Cell monolayers seeded onto coverslips in a 24-well plate were infected with C. trachomatis at a multiplicity of infection (MOI) of 0.2 inclusion-forming units (IFU) per cell. Unless noted, individual compound was added into culture medium at indicated concentrations simultaneously at the time of inoculation. 0.5% DMSO was used as negative control and 11.25 μM tetracycline (Sigma-Aldrich) as positive control. For C. trachomatis D, an additional centrifugation (900 × g at room temperature for 1 h) was applied to facilitate the infection. At 36 hours postinfection (hpi), infected cells were fixed by precooled methanol and then subjected to sequential staining processed with a primary antibody and a FITC-conjugated secondary antibody. Evans blue was used as cytoplasm counterstain. Images were shot by an Olympus IX51 fluorescence microscope. […] At the highest concentration of 32 μM, inclusions were few and tiny, analogous to the positive control tetracycline (final concentration, 11.25 μM). In addition, the reduction on the production of progeny EBs was consistent with that of the inclusion number and size (Figure 1(b)). The direct inhibitory effect was also analyzed for C. trachomatis D. Happened as expected, changes in inclusion size and number and the progeny production that response to both chemicals are highly similar to those observed for C. trachomatis L2, with slightly weaker effect (Figures 1(a) and 1(c)).  Figure 1 Inhibition effect of compounds 1 and 2 on C. trachomatis. HeLa cells were infected with C. trachomatis L2 or D at an MOI of 0.2 in the presence of 0.5% DMSO, 11.25 μM tetracycline, or various concentrations of individual compound. Cells were either fixed or lysed for determination of infectious progeny EBs at 36 hpi. (a) Representative immunofluorescence microscopy images (scale bar = 100 μm). Inclusions were stained with a polyclonal anti-MoPn antibody that cross-reacts with C. trachomatis L2 and D (green), and cells were counterstained with Evans blue (red). (b, c) The percent inhibition of production of infectious progeny EBs was calculated based on data in compound-treated samples relative to DMSO-treated control. Data are presented as mean ± SD of three independent assays.

[1] = system: Chlamydia trachomatis L2 EBs; assay: Elementary body pretreatment assay; assay type: cell-based; conditions: for EB entry efficiency after EB pretreatment for 4 h: 32 μM, 4°C; for EB counts that enter into host cells after EB pretreatment for 1 h: 2, 8 and 32 μM, 37°C and 4°C
Description: Chlamydia trachomatis L2 EBs suspended in SPG at 4 x 10^5 IFU/mL were exposed to 2, 8, or 32 μM individual compound at 37°C or 4°C for indicated times. EBs then were washed twice to eliminate the residual chemical and were immediately loaded onto HeLa cell monolayers at an MOI of 0.2. The infective EB count was measured by quantifying inclusion numbers at 36 hpi using immunofluorescence staining as above.  Figure 4 Compounds 1 and 2 weakly attenuated the EB infectivity. Chlamydia trachomatis L2 EBs were incubated with 2, 8, or 32 μM compound 1 (a) or 2 (b) at 37°C or 4°C for 1 or 4 h. After washes, EBs were used to infect HeLa cell. At 36 hpi, the inclusion was counted as described in “Materials and Methods.” Data are presented as mean ± SD of three independent assays. ∗∗p < 0.01, compared 4°C with 37°C by Student's t-tests. ^#p < 0.05, compared with each DMSO control sample by Student's t-tests.

[2] = system: Chlamydia trachomatis serovar L2 (strain 434/Bu); assay: Infectious progeny inhibition assay, C. trachomatis L2; assay type: cell-based
Description: Chlamydia trachomatis serovars D (strain UW-3/CX) and L2 (strain 434/Bu) were purchased from ATCC. HeLa cells purchased from ATCC were routinely cultured in DMEM supplemented with 10% heat-inactivated FBS (Sigma-Aldrich) and 10 μg/mL gentamicin at 37°C in a humidified atmosphere of 5% and were used for chlamydial propagation and cell culture experiments. EBs were purified by Renografin density gradient and stored in sucrose-phosphate-glutamate (SPG) buffer at -80°C [20]. A mouse polyclonal anti-MoPn (C. muridarum strain Nigg II) antibody, which was produced in our laboratory and cross-reacting with C. trachomatis D and L2, was used as a primary antibody for both stains detection.
Cell monolayers seeded onto coverslips in a 24-well plate were infected with C. trachomatis at a multiplicity of infection (MOI) of 0.2 inclusion-forming units (IFU) per cell. Unless noted, individual compound was added into culture medium at indicated concentrations simultaneously at the time of inoculation. 0.5% DMSO was used as negative control and 11.25 μM tetracycline (Sigma-Aldrich) as positive control. For C. trachomatis D, an additional centrifugation (900 × g at room temperature for 1 h) was applied to facilitate the infection. At 36 hours postinfection (hpi), infected cells were fixed by precooled methanol and then subjected to sequential staining processed with a primary antibody and a FITC-conjugated secondary antibody. Evans blue was used as cytoplasm counterstain. Images were shot by an Olympus IX51 fluorescence microscope.
Cells monolayers seeded in 48-well plate were infected and treated with chemicals as above. After incubation for 36 hours, infected cells were washed twice, scraped off, and lysed by sonication to release the infectious progeny EBs. Then the lysates were used to reinfect fresh cell monolayers grown in 96-well plate following 1 : 10 serial dilution. The inclusion counts were obtained by immunofluorescence staining as above to calculate the number of infectious progeny EBs in each sample. Percent inhibition was calculated based on EB counts in compound-treated samples relative to DMSO-treated negative control.
Data from the three independent experiments were presented as mean ± standard deviations (SD) and were subjected to pairwise Student's t-tests. p < 0.05 and p < 0.01 are considered statistically significant and statistically highly significant, respectively. The IC50 values, defined as the concentration of compound at which the generation of infectious progeny EBs was reduced by 50% relative to negative control, were calculated by nonlinear regression from percent inhibition data using the GraphPad Prism 5 software, and presented as mean (95% confidence interval).

[3] = Chlamydia trachomatis, HeLa, generation of infectious progeny EBs in HeLa cells, MOI 0.2, 36 hpi, 1 to 32 μM, read-out: IC50 (μM) Mean (95% confidence interval) Ct L2
[4] = Chlamydia trachomatis, text statements over both strains (L2 and D), infectious progeny EBs, read-out: IC50 values, statement covering both C. trachomatis L2 and D
[5] = generation of infectious progeny EBs in HeLa cells, MOI 0.2, 36 hpi, 1 to 32 μM, read-out: IC50 (μM) Mean (95% confidence interval) Ct L2

| SMILES | Inclusions at the highest concentration (C. trachomatis L2) | Formation (number) and growth (size) of C. trachomatis L2 inclusions (C. trachomatis L2) | EB entry efficiency after EB pretreatment for 4 h [1] | EB counts that enter into host cells after EB pretreatment for 1 h [1] | IC50 [2, 3] | IC50 [2, 4] | IC50 [2, 5] |
| --- | --- | --- | --- | --- | --- | --- | --- |
| c1ccc(C2C3CC(c4ccccc4)N(c4ccccc4)C3ON2c2ccccc2)cc1 (centres unmarked) [Compound 1] | few and tiny | inhibited the formation (number) and growth (size) | slightly dropped | did not change | < 10 µM | 7.25 to 9.73 µM | 7.25 µM |
| Clc1ccc(N2C(c3ccccc3)CC3C(c4ccccc4)N(c4ccccc4)OC32)cc1 (centres unmarked) [Compound 2] | few and tiny | inhibited the formation (number) and growth (size) | slightly dropped | did not change | < 10 µM | 7.25 to 9.73 µM | 8.69 µM |
